Reference: patent US10259777B2, “(E)-3-(3,4-dihydroxyphenyl)-N-(prop-2-yn-1-yl)acrylamide for treatment of neurodegenerative diseases” (THE UNIVERSITY OF HONG KONG, priority 2015, dated 2019)

Key:
Assay type in all cases: cell-based, rat
PC12 cells [1] = experiment: 6-OHDA-induced neurotoxicity in PC12 cells, MTT cell viability; conditions: 6-OHDA with or without PACA, 24 hours
Method: Neurotoxin 6-hydroxydopamine (6-OHDA) is widely used to induce the cell model of human Parkinsonism. PC12 cells were treated with 6-OHDA with or without PACA for 24-hours, the cell viability was assessed by the colorimetric MTT assay. The relative cell viability was plotted against the concentrations of PACA. On the other hand, primary midbrain neurons were isolated from 17-day-old Sprague Dawley (SD) rat embryos. The midbrain neurons were treated with 6-OHDA with or without PACA for 12-hours, the cell viability was assessed by the colorimetric MTT assay. Alternatively, the neurons were stained with 5 μM of Hoechst 33342 and 1 μM of PI in the differentiation medium at 37° C. for 30 min. The images were captured on a Zeiss fluorescence microscope. (A) MTT assay of the cell viability in PC 12 cells. […] PI-positive and Hoechst 33342-stained neurons were counted under a fluorescence microscope. […]
Neurotoxin 6-hydroxydopamine (6-OHDA) is widely used to induce the cell model of human Parkinsonism. PC12 cells were treated with 6-OHDA with or without PACA for 24-hours, the cell viability was assessed by the colorimetric MTT assay. […] The midbrain neurons were treated with 6-OHDA with or without PACA for 12-hours, the cell viability was assessed by the colorimetric MTT assay. […] The images were captured on a Zeiss fluorescence microscope.

heme oxygenase-1 (HO-1) = experiment: HO-1 induction in PC12 cells, Western blot; conditions: PACA 5 to 100 μM for 24 hours or 20 μM for 3, 6, 12, 24 hours
Method: Induction of HO-1 expression is a key mechanism underlying the neuritogenic effects of PACA. (A & B) Western blot analysis of HO-1 induction. Following PACA treatment at different concentrations (A) and for different time points (B), the cellular proteins were isolated and analyzed by Western blotting for HO-1 expression. GAPDH was analyzed as the control of protein loading. (C) PACA stimulated neurite outgrowth via HO-1-mediated mechanism. PC12 cells were treated with NGF (2 ng/ml) in combination with PACA (5 μM, 20 μM) in presence or absence of HO-1 inhibitor SnPP for 72 hours. Cells were stained by neurite outgrowth staining kit and imaged under a fluorescence microscope. (D) Role of HO-1 induction in the neuritogenic activity of PACA. The images captured in Panel C were analyzed for the number of neurite bearing cells. The cells bearing neurites longer than 20 μm were counted. The values represent means±SD (n=3). **, p<0.01 (+SnPP vs −SnPP).
It is well-known that direct modification of Keap1 causes the dissociation of the Nrf2-Keap1 complex and subsequent expression of heme oxygenase-1 (HO-1). Following the treatment with PACA at the concentrations ranging from 5 to 100 μM for 24 hours or at the concentration of 20 μM for 3, 6, 12, 24 hours, PC12 cells were analyzed by Western blotting for HO-1 induction.

PC12 cells [2] = experiment: Mitochondrial membrane integrity against 6-OHDA, JC-1 probe; conditions: 6-OHDA with PACA 5, 10, 20 and 50 μM
Method: PC12 cells were treated with 6-OHDA alone or in combination with PACA for 6 hours and subsequently stained with JC-1. The images were captured under a fluorescence microscope.
To investigate the neuroprotective mechanisms of PACA, PC12 cells were treated with 6-OHDA alone or in combination with PACA at the concentrations of 5, 10, 20 and 50 μM. At the end of treatment, the protection of PACA on the mitochondrial membrane integrity was examined by using a cell permeable fluorescent probe 5,5′,6,6′-tetrachloro-1,1′,3,3′-tetraethyl-benzimidazol-carbocyanine iodide (JC-1). 6-OHDA deadly disrupted the mitochondrial membrane integrity as indicated by the leakage of JC-1 into the cytosol.

PC12 cells [3] = experiment: 6-OHDA-induced superoxide production, DHE staining; conditions: 6-OHDA with PACA 5, 10, 20 and 50 μM
Method: (§1) After the treatment with 6-OHDA alone or in combination with PACA at different concentrations, PC12 cells were stained with a fluorescent probe dihydroethidium (DHE) for the production of superoxide anion (A & B) and another fluorescent probe DAF-FM Diacetate for the production of nitric oxide ([…]), respectively. (A) Representative images of DHE-stained cells. 6-OHDA, 200 μM; PACA, 50 (B) PACA inhibited 6-OHDA-induced formation of superoxide ions. PC12 cells were treated with 6-OHDA alone or in combination with PACA for 6 h and subsequently stained with a probe DHE. The images were captured under a fluorescence microscope. The fluorescence was determined by ImageJ software. (C) Representative images of DAF-FM DA-stained cells. 6-OHDA, 200 μM; PACA, 50 μM. (D) PACA inhibited 6-OHDA-induced NO production. PC12 cells were treated with 6-OHDA alone or in combination with PACA for 6 h and subsequently stained with a probe DAF-FM DA. The images were captured under a fluorescence microscope. The fluorescence was determined by ImageJ software.
(§2) PC12 cells were treated with 6-OHDA alone or in combination with PACA at the concentrations of 5, 10, 20 and 50 μM. At the end of treatment, PC12 cells were then stained with a fluorescent probe dihydroethidium (DHE) for the production of superoxide anion and another fluorescent probe DAF-FM Diacetate for the production of nitric oxide, respectively.

PC12 cells [4] = experiment: 6-OHDA-induced nitric oxide production, DAF-FM Diacetate staining; conditions: 6-OHDA with PACA 5, 10, 20 and 50 μM
Method: as §1, §2

## C#CCNC(=O)/C=C/c1ccc(O)c(O)c1 [PACA, (E)-3-(3,4-dihydroxyphenyl)-N-(prop-2-yn-1-yl)acrylamide]
PC12 cells [1]
  6-OHDA neurotoxicity in PC12 cells: attenuated 6-hydroxydopamine (6-OHDA) neurotoxicity
Heme oxygenase-1 (HO-1)
  HO-1 expression: induced HO-1 expression in a time- and concentration-dependent manner
PC12 cells [2]
  mitochondrial membrane integrity against 6-OHDA: maintained the mitochondrial membrane integrity in a concentration-dependent manner
PC12 cells [3]
  6-OHDA-induced formation of superoxide ions: significantly attenuated
PC12 cells [4]
  6-OHDA-induced formation of NO: significantly attenuated
